Experiments:
CXCR3 [1] = molecular target: T1, CXCR3 (Homo sapiens, UniProt P49682); assay: Chemotaxis assay ITAC (CXCL11), L1.2-CXCR3 cells; type: cell-based; parameters: expressed in transfected cells; conditions: 1 nM CXCL11 (I-TAC), 4 hours
T1 sequence (P49682 1-368): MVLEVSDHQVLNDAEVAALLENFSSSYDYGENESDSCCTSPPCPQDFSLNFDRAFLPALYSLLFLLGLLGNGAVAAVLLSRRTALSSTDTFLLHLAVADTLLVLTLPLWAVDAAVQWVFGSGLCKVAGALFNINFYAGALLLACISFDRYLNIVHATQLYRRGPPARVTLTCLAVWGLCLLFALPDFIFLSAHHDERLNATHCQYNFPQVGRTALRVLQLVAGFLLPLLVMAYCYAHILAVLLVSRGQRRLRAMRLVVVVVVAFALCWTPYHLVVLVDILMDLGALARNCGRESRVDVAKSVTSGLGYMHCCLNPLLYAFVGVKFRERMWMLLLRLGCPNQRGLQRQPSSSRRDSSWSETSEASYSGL
Protocol: Human CXCR3 cDNA was amplified by PCR from a human cells cDNA library (Clontech) and subcloned into pcDNA3.1 (Invitrogen). Murine pre-B L1.2 cells were transfected with hCXCR3-pcDNA3.1 and were grown at 37° C., 5% CO2 in RPMI 1640 medium (Invitrogen, USA) supplemented with 5% heat inactivated fetal calf serum (Cancerra, Australia), 2 mM glutamine (Invitrogen), 50 units ml−1 penicillin, 50 μml−1 streptomycin. Stable transfectant clonal populations were selected using 800 μg/ml geneticin.
L1.2-CXCR3 cells were grown for 24 hours at 0.5×10^6 cells/ml in chemotaxis medium containing 5 mM butyric acid (Sigma). Compounds were on one hand mixed with 1 nM of CXCL11 (I-TAC) in phenol-red free RPMI 1640 (invitrogen) supplemented with 5% fetal bovine serum in presence of 1% DMSO. The CXCL11/compounds mixture was then added to lower chambers of chemotaxis 96 well microplates (neuroprobe), and framed filters ([…] pore size) were put on top of the lower chambers. Compounds were on the other hand mixed with L1.2 CXCR3 cells and incubated in chemotaxis medium at 1.5×10^6 cells/ml in presence of 1% DMSO at 37° C., 5% CO2 for 30 minutes. Cells/compounds mixture was then added on top of the frame filters and migration was performed at 37° C., 5% CO2 for 4 hours. The number of migrated cells in the bottom chamber was determined using the CyQuant GR dye (Molecular Probe), according to the manufacturer.

CXCR3 [2] = molecular target: T1, CXCR3; assay: CXCR3 Ca2+ mobilization (FLIPR), stable hCXCR3-CHO cell line, I-TAC stimulated; type: cell-based; parameters: host or cells: CHO cells stably expressing hCXCR3; conditions: hCXCR3-CHO cells, I-TAC 100 nM stimulated Ca2+ response; read-out: Ca-ITAC
Protocol: Human chinese hamster ovary (CHO) cell line stably expressing hCXCR3 was purchased from Euroscreen (Belgium) and culture in HAM's F12 (Invitrogen) containing 10% heat inactivated fetal calf serum (Cancerra, Australia), 50 units ml−1 penicillin, 50 μml−1 streptomycin, (Invitrogen, USA) and 400 μg/ml geneticin (G418) (Calbiochem, San Diego), according to the manufacturer.
CXCR3Ca^2+ mobilization was measured using a stable hCXCR3—CHO cell line and a microtiter-plate based assay using FLIPR^TETRA™ (Molecular Devices). In more detail, cells were harvested and plated into black 384-well plates (Becton-Dickinson) at a density of 15 000 cells per well and grown in the incubator for 18 hours. On the next day the media was aspirated and replaced with the cell loading buffer (HBSS—(Invitrogen) based buffer containing calcium indicator and signal enhancer from a commercial Ca2+ assay kit (Becton Dickinson). The plates were incubated for 60 minutes in the incubator, the test compounds were added and the plates equilibrated for 20 minutes at room temperature.
Plates were placed into FLIPR and the CXCR3 agonist (I-TAC, 100 nM) stimulated fluorescence change was quantitated. The activity of CXCR3 antagonists was determined as percent of the CXCR3 ligand I-TAC in the absence of the test compounds (=100% activity).

Row | Compound | IC50 (CXCR3 [1]) [nM] | IC50 (CXCR3 [2]) [nM]
1 | O=S(=O)(c1ccc(Cl)cc1)N(Cc1ccc(-c2nnn[nH]2)cc1)Cc1cccnc1 [Example 71, 4-chloro-N-(pyridin-3-ylmethyl)-N-[4-(2H-tetrazol-5yl)benzyl]benzene sulfonamide] | 1540 | 16000
2 | Cc1nc(CN(Cc2ccc(-c3nnn[nH]3)cc2)S(=O)(=O)c2ccc(Cl)cc2)no1 [Example 73, 4-chloro-N-(5-methyl-1,2,4-oxadiazol-3-ylmethyl)-N-[4-(2H-tetrazol-5yl)benzyl]benzene sulfonamide] | 3240 | 12000
3 | O=S(=O)(c1ccc(Cl)cc1)N(Cc1ccc(-c2nnn[nH]2)cc1)Cc1nccc2ccccc12 [Example 74, 4-chloro-N-(isoquinolin-1-ylmethyl)-N-[4-(2H-tetrazol-5yl)benzyl]benzene sulfonamide] | 666 | 2000
4 | O=S(=O)(c1ccc(Cl)cc1)N(Cc1ccc(-c2nnn[nH]2)cc1)Cc1ccc2ccccc2n1 [Example 75] | 2520 | 2000
5 | CCOc1ccc(S(=O)(=O)N(Cc2ccc(C(=O)N[C@H](CO)Cc3ccccc3)cc2)Cc2ccccn2)cc1 [Example 87] | 760 | 17000
6 | CCOc1ccc(S(=O)(=O)N(Cc2ccc(C(=O)N[C@H]3[C@@H]4CN(C(=O)OC(C)(C)C)C[C@@H]43)cc2)Cc2cccnc2)cc1 [Example 94] | 260 | 2000
7 | N#Cc1ccc(S(=O)(=O)N(Cc2ccc(C(=O)NCCc3ccc(S(N)(=O)=O)cc3)cc2)Cc2ccccn2)cc1 [Example 99] | 1030 | 1450
8 | N#Cc1ccc(S(=O)(=O)N(Cc2ccc(C(=O)N[C@@H](Cc3ccccc3)C(N)=O)cc2)Cc2ccccn2)cc1 [Example 100] | 630 | 200
9 | CC(C)(C)OC(=O)N1C[C@@H]2[C@H](C1)[C@H]2NC(=O)c1ccc(CN(Cc2ccccn2)S(=O)(=O)c2ccc(Cl)cc2)cc1 [Example 105] | 70 | 20
10 | CC(C)(C)OC(=O)N1C[C@@H]2[C@H](C1)[C@H]2NC(=O)c1ccc(CN(Cc2ccccc2)S(=O)(=O)c2ccc(Cl)cc2)cc1 [Example 106] | 510 | 300
11 | CCOc1ccc(S(=O)(=O)N(Cc2ccc(C(=O)N[C@H]3[C@@H]4CN(C(C)=O)C[C@@H]43)cc2)Cc2ccccn2)cc1 [Example 107] | 2070 | 5500
12 | N#Cc1ccc(S(=O)(=O)N(Cc2ccc(C(=O)NCC(O)c3ccccc3)cc2)Cc2cccnc2)cc1 (centres unmarked) [Example 109] | 130 | 750
13 | N#Cc1ccc(S(=O)(=O)N(Cc2ccc(C(=O)NCCc3cccc(Cl)c3)cc2)Cc2cccnc2)cc1 [Example 110] | 390 | 750
14 | N#Cc1ccc(S(=O)(=O)N(Cc2ccc(C(=O)NC3(c4ccccc4)CC3)cc2)Cc2cccnc2)cc1 [Example 113] | 1300 | 320
15 | N#Cc1ccc(S(=O)(=O)N(Cc2ccc(C(=O)NC(CO)C(O)c3ccccc3)cc2)Cc2cccnc2)cc1 (centres unmarked) [Example 114] | 2500 | 2000
16 | CC(=O)N1C[C@@H]2[C@H](C1)[C@H]2NC(=O)c1ccc(CN(Cc2ccccc2)S(=O)(=O)c2ccc(Cl)cc2)cc1 [Example 118] | 2610 | 3000
17 | CC(=O)N1C[C@@H]2[C@H](C1)[C@H]2NC(=O)c1ccc(CN(Cc2ccccn2)S(=O)(=O)c2ccc(C#N)cc2)cc1 [Example 119] | 2140 | 870
18 | O=S(=O)(c1ccc(OC(F)(F)F)cc1)N(Cc1ccc(-c2nnn[nH]2)cc1)Cc1ccccn1 [Example 120] | 4470 | 200
19 | O=S(=O)(c1ccc(Cl)cc1)N(Cc1ccccc1)Cc1ccc(-c2nnn[nH]2)cc1 [Example 121] | 3890 | 3000
20 | O=C(NC1(c2cccc(Cl)c2)CC1)c1ccc(CN(Cc2ccccn2)S(=O)(=O)c2ccc(Cl)cc2)cc1 [Example 122] | 240 | 600

Row | Compound | IC50 (CXCR3 [1]) [nM] | IC50 (CXCR3 [2]) [nM]
21 | N#Cc1ccc(S(=O)(=O)N(Cc2ccc(C(=O)NC3(c4cccc(Cl)c4)CC3)cc2)Cc2ccccn2)cc1 [Example 123] | 60 | 300
22 | CCOc1ccc(S(=O)(=O)N(Cc2ccc(C(=O)NC3(c4cccc(Cl)c4)CC3)cc2)Cc2ccccn2)cc1 [Example 124] | 160 | 500
23 | O=C(NC1(c2ccc(Cl)cc2)CC1)c1ccc(CN(Cc2ccccn2)S(=O)(=O)c2ccc(Cl)cc2)cc1 [Example 125] | 350 | 400
24 | N#Cc1ccc(S(=O)(=O)N(Cc2ccc(C(=O)NC3(c4ccc(Cl)cc4)CC3)cc2)Cc2ccccn2)cc1 [Example 126] | 170 | 700
25 | CCOc1ccc(S(=O)(=O)N(Cc2ccc(C(=O)NC3(c4ccc(Cl)cc4)CC3)cc2)Cc2ccccn2)cc1 [Example 127] | 380 | 500
26 | COC(=O)c1ccc(CNC(=O)c2ccc(CN(Cc3ccccn3)S(=O)(=O)c3ccc(Cl)cc3)cc2)cc1 [Example 132] | 270 | 900
27 | N#Cc1ccc(S(=O)(=O)N(Cc2ccc(C(=O)NCc3ccccn3)cc2)Cc2ccccn2)cc1 [Example 135] | 750 | 900
28 | N#Cc1ccc(S(=O)(=O)N(Cc2ccc(C(=O)NCc3cccnc3)cc2)Cc2ccccn2)cc1 [Example 136] | 930 | 8000
29 | N#Cc1ccc(S(=O)(=O)N(Cc2ccc(C(=O)NCc3ccncc3)cc2)Cc2ccccn2)cc1 [Example 137] | 4310 | 3000
30 | N#Cc1ccc(S(=O)(=O)N(Cc2ccc(C(=O)NCc3ccccc3)cc2)Cc2ccccn2)cc1 [Example 138] | 60 | 100
31 | Cc1nnc(CNC(=O)c2ccc(CN(Cc3ccccn3)S(=O)(=O)c3ccc(C#N)cc3)cc2)o1 [Example 142] | 4180 | 10000
32 | Cn1c(CNC(=O)c2ccc(CN(Cc3ccccn3)S(=O)(=O)c3ccc(C#N)cc3)cc2)nc2ccccc21 [Example 143] | 1000 | 400
33 | COC(=O)[C@@H](Cc1ccccc1)NC(=O)c1ccc(CN(Cc2ccccn2)S(=O)(=O)c2ccc(Cl)cc2)cc1 [Example 145] | 400 | 2000
34 | COC(=O)C(NC(=O)c1ccc(CN(Cc2ccccn2)S(=O)(=O)c2ccc(Cl)cc2)cc1)c1ccc(F)c(F)c1 (centres unmarked) [Example 147] | 82 | 400
35 | O=C(NC(C(=O)O)c1ccc(F)c(F)c1)c1ccc(CN(Cc2ccccn2)S(=O)(=O)c2ccc(Cl)cc2)cc1 (centres unmarked) [Example 149, (4-{[(4-Chloro-benzenesulfonyl)-pyridin-2-ylmethyl-amino]-methyl}-benzoylamino)-(3,4-difluoro-phenyl)-acetic acid] | 73 | 100
36 | COC(=O)c1ccc(S(=O)(=O)N(Cc2ccc(C(=O)NC3(c4ccccc4)CC3)cc2)Cc2ccccn2)cc1 [Example 150] | 10 | 300
37 | N#Cc1ccc(S(=O)(=O)N(Cc2ccc([N+](=O)[O-])cc2)Cc2ccccn2)cc1 [Example 158] | 4800 | 1000
38 | O=S(=O)(c1cccc(-c2ccccc2)c1)N(Cc1ccc(-c2nnn[nH]2)cc1)Cc1ccccn1 [Example 166] | 9050 | 1430
39 | C[C@@H](c1ccc(NC(=O)C2(c3ccccc3)CC2)cc1)N(Cc1ccccn1)S(=O)(=O)c1ccc(C#N)cc1 [Example 167] | 1960 | 250
40 | CC(=O)OC(C(=O)Nc1ccc(CN(Cc2ccccn2)S(=O)(=O)c2ccc(Cl)cc2)cc1)c1ccccc1 (centres unmarked) [Example 169] | 10 | 700

From patent US20110028509A1, “Sulfonamides” (MERCK SERONO SA, priority 2008, published 2011)
